Experimental data as given in article PMC6934184, “Selective DNA-PKcs inhibition extends the therapeutic index of localized radiotherapy and chemotherapy” (The Journal of Clinical Investigation, 2019).

Molecular target: T1, NTRK1 (TRKA) (Homo sapiens, UniProt P04629)
T1 construct: purchased Thermo Fisher Scientific (Life Technologies) SelectScreen
Test: SelectScreen Z'LYTE
Assay type: biochemical
Method in brief: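 NU5455 was profiled across the SelectScreen Broad panel of kinase activity and binding assays. Z'LYTE reactions such as CSF1R ran at apparent Km ATP, while the Adapta CAMK1 assay used ATP listed as 10. Values are given as percent.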

T1 sequence (P04629 33-796): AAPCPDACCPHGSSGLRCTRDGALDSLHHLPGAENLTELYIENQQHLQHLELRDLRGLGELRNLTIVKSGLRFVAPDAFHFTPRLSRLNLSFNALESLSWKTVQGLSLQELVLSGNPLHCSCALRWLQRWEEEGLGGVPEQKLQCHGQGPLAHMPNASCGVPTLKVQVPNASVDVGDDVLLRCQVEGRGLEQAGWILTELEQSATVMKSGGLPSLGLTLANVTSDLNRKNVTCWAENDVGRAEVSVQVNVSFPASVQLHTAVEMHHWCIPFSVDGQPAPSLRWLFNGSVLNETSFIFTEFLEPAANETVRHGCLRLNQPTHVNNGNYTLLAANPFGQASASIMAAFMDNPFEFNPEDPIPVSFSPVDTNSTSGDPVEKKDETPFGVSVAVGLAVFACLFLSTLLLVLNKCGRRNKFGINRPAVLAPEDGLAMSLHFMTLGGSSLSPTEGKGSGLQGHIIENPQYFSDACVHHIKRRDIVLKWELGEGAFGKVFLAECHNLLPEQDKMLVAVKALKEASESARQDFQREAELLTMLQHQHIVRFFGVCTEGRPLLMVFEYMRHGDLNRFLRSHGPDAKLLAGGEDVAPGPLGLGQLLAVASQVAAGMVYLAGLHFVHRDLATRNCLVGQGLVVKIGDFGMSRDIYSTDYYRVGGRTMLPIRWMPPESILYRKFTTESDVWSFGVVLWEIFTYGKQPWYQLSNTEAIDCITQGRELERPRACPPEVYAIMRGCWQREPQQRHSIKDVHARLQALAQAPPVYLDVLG

SMILES: CN(C(=O)CN1CCOCC1)c1ccc2sc3c(-c4cccc5c(=O)cc(N6CC7CCC(C6)O7)oc45)cccc3c2c1 [NU5455]
- inhibition at 1 µM: 1.3%
